Columns and labels:
[1] = controlled release of drug from the formulation (dialysis bag in PBS sink, UV 272 nm); assay type: physicochemical
Method: (§1) The controlled release of the formulation was evaluated where 0.5 mL of the formulation was placed into a dialysis bag (10 kDa) and submerged in 50 mL sink of phosphate buffered saline (1×; pH 7.4). The samples were placed into a rotating incubator (1 Hz) at 37° C. At designated timepoints, 2 mL of saline was removed and analyzed using ultraviolet visible spectrophotometry (272 nm). The entire sink medium was replaced at each timepoint until drug no longer eluted out of the system.
as §1, with “The release of bupivacaine is shown in a formulation including MCT oil and glycerol monostearate as a structuring agent with and without the presence of an anion to increase hydrophobicity. […] The controlled” for “The controlled”, “buffered saline (lx; pH 7.4).” for “buffered saline (1×; pH 7.4).”

[2] = max solubility of bupivacaine in oil (37° C. overnight, centrifuge, UV 272 nm)
Method: The solubility of bupivacaine in a blend of MCT oil and castor oil was studied. […] The max solubility of the oil blends was determined by adding 300 mg of bupivacaine free base into 3 mL of an MCT: castor oil mixture. […] After rotating, samples were spun in a centrifuge at 2000×g for 5 minutes. Next, 30 uL of sample supernatant was taken and dissolved to 1470 uL of ethanol and analyzed using ultraviolet visible spectrophotometry (272 nm).

[3] = solubility of ropivacaine forms in lipophilic oils; assay type: physicochemical

With `CCCCC(CC)COC(=O)CC(C(=O)OCC(CC)CCCC)S(=O)(=O)O.CCCCN1CCCCC1C(=O)Nc1c(C)cccc1C` (stereo not drawn) [bupivacaine with docusate, bupivacaine docusate] the “release of bupivacaine with and without an anion” value ([1]; FIG. 13, MCT oil and glycerol monostearate, PBS pH 7.4, 37° C.) was “prolonged”.

In the case of `CCCCN1CCCCC1C(=O)Nc1c(C)cccc1C` (stereo not drawn) [bupivacaine], the “drug release with specific blends of oil” value ([1]; MCT oil:castor oil blends) is reported as “slows”, the “drug solubility in castor oil versus MCT” value [2] is reported as “higher drug solubility in castor oil than MCT” and the “solubility of bupivacaine (drug loading) in blends of MCT oil and castor oil” value ([2]; FIG. 11, 37° C. overnight) is reported as “drug loading increases with specific blends of oil”.

With `CCCCC(CC)COC(=O)CC(C(=O)OCC(CC)CCCC)S(=O)(=O)O.CCCN1CCCCC1C(=O)Nc1c(C)cccc1C` (stereo not drawn) [ropivacaine docusate] the “solubility in lipophilic oils such as medium-chain triglycerides” value [3] was “suitable solubility”.

In the case of `CCCN1CCCC[C@H]1C(=O)Nc1c(C)cccc1C` [ropivacaine], the “solubility in lipophilic oils such as medium-chain triglycerides” value [3] is reported as “poor solubility”.

Source: patent publication US11918572B2, “Pharmaceutical compositions for treating pain” (REBEL MEDICINE INC, priority 2022, dated 2024)
